In brackets after ≈: the same amount, converted by molar mass. Several values for one entry are separate records, joined by “and”; a condition that tells them apart may be missing. Identical values can stand only once.
How the values were obtained:
Experiment in all cases: ≥ marks a high value that may be exact or a test limit, other limits are often not marked, values filed in µg/mL are converted to µM
Acinetobacter baumannii = tested on: Acinetobacter baumannii
Enterobacter cloacae = tested on: Enterobacter cloacae
[1] = tested on: Escherichia coli ATCC 35218
Klebsiella aerogenes = tested on: Klebsiella aerogenes
Klebsiella oxytoca = tested on: Klebsiella oxytoca
Klebsiella pneumoniae = tested on: Klebsiella pneumoniae
Proteus mirabilis = tested on: Proteus mirabilis
Pseudomonas aeruginosa = tested on: Pseudomonas aeruginosa
Salmonella enterica = tested on: Salmonella enterica
Serratia marcescens = tested on: Serratia marcescens
Staphylococcus aureus = tested on: Staphylococcus aureus
[2] = tested on: Staphylococcus epidermidis
[3] = tested on: Staphylococcus haemolyticus
[4] = tested on: Staphylococcus saprophyticus
[5] = tested on: Escherichia coli ATCC 25922
Escherichia coli = tested on: Escherichia coli
[6] = tested on: Pseudomonas aeruginosa 885149
[7] = tested on: Pseudomonas aeruginosa 891
[8] = tested on: Pseudomonas aeruginosa ATCC 27853
[9] = tested on: Staphylococcus aureus ATCC 25923
[10] = tested on: Staphylococcus aureus MIU-68A
[11] = tested on: Escherichia coli DSM 1116
[12] = tested on: Franconibacter helveticus DSM 18390
[13] = tested on: Staphylococcus xylosus DSM 20267
Escherichia coli BL21 = tested on: Escherichia coli BL21
Escherichia coli MG1655 = tested on: Escherichia coli MG1655
[14] = tested on: Staphylococcus aureus ATCC 29213
[15] = tested on: Staphylococcus aureus FDA486
[16] = tested on: Staphylococcus aureus FusA88700
[17] = tested on: Candida albicans ATCC 10231
[18] = tested on: Enterococcus faecalis ATCC 2912
[19] = tested on: Pseudomonas aeruginosa ATCC 15442
[20] = tested on: Staphylococcus aureus ATCC 6538
[21] = tested on: Staphylococcus hominis ATCC 27844
[22] = tested on: Aspergillus oryzae NBRC 100959
[23] = tested on: Candida viswanathii NBRC 10321
[24] = tested on: Escherichia coli NBRC 3972
[25] = tested on: Micrococcus luteus NBRC 3333
[26] = tested on: Staphylococcus epidermidis NBRC 12993
[27] = tested on: Candida albicans NCTC 1467
[28] = tested on: Enterococcus faecalis NCTC 12697
[29] = tested on: Escherichia coli NCTC 10418
[30] = tested on: Klebsiella pneumoniae ATCC 43816
[31] = tested on: Staphylococcus aureus NCTC 10788
[32] = tested on: Staphylococcus aureus NCTC 12493

**Q.** `CC[C@H](C)[C@H](NC(=O)[C@H](Cc1ccc(O)cc1)NC(=O)[C@H](Cc1ccc(O)cc1)NC(=O)[C@H](CO)NC(=O)CNC(=O)CNC(=O)[C@H](CC(N)=O)NC(=O)[C@H](CCCN=C(N)N)NC(=O)[C@H](CC(C)C)NC(=O)[C@@H](N)Cc1ccccc1)C(=O)N[C@H](C(=O)N1CCC[C@H]1C(=O)N[C@@H](C)C(=O)N[C@@H](Cc1ccccc1)C(=O)N[C@@H](CCCN=C(N)N)C(=O)NCC(=O)N[C@@H](CCCCN)C(=O)NCC(=O)O)C(C)C` [FLRNGGSYYIVPAFRGKG] was tested. Which MIC (Acinetobacter baumannii) did it give?
**A.** 10 µM (≈ 20 µg/mL)

**Q.** And the MIC (Enterobacter cloacae)?
**A.** 10 µM (≈ 20 µg/mL)

**Q.** And the MIC [1]?
**A.** 10 µM (≈ 20 µg/mL)

**Q.** And the MIC (Klebsiella aerogenes)?
**A.** 10 µM (≈ 20 µg/mL)

**Q.** What about the MIC (Klebsiella oxytoca) of the same compound?
**A.** 10 µM (≈ 20 µg/mL)

**Q.** What about the MIC (Klebsiella pneumoniae) of the same compound?
**A.** > 10 µM

**Q.** What about the MIC (Proteus mirabilis) of the same compound?
**A.** 10 µM (≈ 20 µg/mL)

**Q.** What about the MIC (Pseudomonas aeruginosa) of the same compound?
**A.** > 10 µM

**Q.** And the MIC (Salmonella enterica)?
**A.** 10 µM (≈ 20 µg/mL)

**Q.** And the MIC (Serratia marcescens)?
**A.** 10 µM (≈ 20 µg/mL)

**Q.** And the MIC (Staphylococcus aureus)?
**A.** > 10 µM

**Q.** What about the MIC [2] of the same compound?
**A.** 10 µM (≈ 20 µg/mL)

**Q.** And the MIC [3]?
**A.** 10 µM (≈ 20 µg/mL)

**Q.** What about the MIC [4] of the same compound?
**A.** 10 µM (≈ 20 µg/mL)

**Q.** `CC[C@H](C)[C@H](NC(=O)[C@@H](N)CCCCN)C(=O)N[C@@H](CCCN=C(N)N)C(=O)N[C@H](C(=O)N[C@@H](CCCN=C(N)N)C(=O)N[C@@H](CC(C)C)C(=O)N[C@@H](CO)C(=O)N[C@@H](C)C(=O)O)C(C)C` [KIRVRLSA] was tested. Which MIC [5] did it give?
**A.** 17 µM (≈ 16 µg/mL)

**Q.** What about the MIC (Escherichia coli) of the same compound?
**A.** 136 µM (≈ 128 µg/mL)

**Q.** What about the MIC (Klebsiella pneumoniae) of the same compound?
**A.** > 136 µM

**Q.** And the MIC [6]?
**A.** ≥ 34 µM

**Q.** What about the MIC [7] of the same compound?
**A.** 17 µM (≈ 16 µg/mL)

**Q.** What about the MIC [8] of the same compound?
**A.** 17 µM (≈ 16 µg/mL)

**Q.** What about the MIC [9] of the same compound?
**A.** 136 µM (≈ 128 µg/mL)

**Q.** And the MIC [10]?
**A.** ≥ 136 µM

**Q.** For `CC(C)C[C@H](NC(=O)[C@H](CCCCN)NC(=O)[C@H](CC(C)C)NC(=O)[C@H](CCCCN)NC(=O)[C@H](CC(C)C)NC(=O)[C@H](CCCCN)NC(=O)[C@H](CC(C)C)NC(=O)[C@H](CCCCN)NC(=O)[C@H](CC(C)C)NC(=O)[C@@H](N)CCCCN)C(N)=O` [KLKLKLKLKL], which MIC [11] is on record?
**A.** 6.53 µM and 3.27 µM

**Q.** And the MIC [12]?
**A.** 3.27 µM and 1.63 µM

**Q.** What about the MIC [13] of the same compound?
**A.** 1.63 µM (≈ 2 µg/mL)

**Q.** What does the source list for `CC[C@H](C)[C@H](NC(=O)[C@H](CCCCN)NC(=O)[C@H](CCCN=C(N)N)NC(=O)[C@H](CCCCN)NC(=O)[C@H](CCCCN)NC(=O)[C@H](CCCCN)NC(=O)[C@H](Cc1c[nH]c2ccccc12)NC(=O)[C@H](CCCCN)NC(=O)[C@@H](NC(=O)[C@H](CC(C)C)NC(=O)[C@H](Cc1c[nH]c2ccccc12)NC(=O)[C@H](CCCN=C(N)N)NC(=O)[C@H](CC(=O)O)NC(=O)[C@H](CCSC)NC(C)=O)C(C)C)C(=O)N[C@@H](CCCN=C(N)N)C(=O)N[C@@H](CCCN=C(N)N)C(=O)N[C@@H](CCCN=C(N)N)C(=O)N[C@@H](CCCN=C(N)N)C(=O)N[C@@H](CCCN=C(N)N)C(=O)N[C@@H](CCCN=C(N)N)C(=O)N[C@@H](CCCN=C(N)N)C(=O)N[C@@H](CCCN=C(N)N)C(=O)N[C@@H](CCCN=C(N)N)C(=O)N[C@@H](CCCN=C(N)N)C(=O)N[C@@H](CCCN=C(N)N)C(N)=O` [MDRWLVKWKKKRKIRRRRRRRRRRR]?
**A.** MIC (Escherichia coli BL21): 5 µM (≈ 18.4 µg/mL); MIC (Escherichia coli MG1655): 11 µM (≈ 40.4 µg/mL); MIC [14]: 3 µM (≈ 11 µg/mL); MIC [15]: 3 µM (≈ 11 µg/mL); MIC [16]: 3 µM (≈ 11 µg/mL); MIC (Staphylococcus aureus): 3 µM (≈ 11 µg/mL); MIC [2]: 3 µM (≈ 11 µg/mL)

**Q.** Which MIC [17] does the source give for `CSCC[C@H](NC(=O)[C@H](CCCN=C(N)N)NC(=O)[C@H](CO)NC(=O)CNC(=O)[C@H](CCCCN)NC(=O)[C@@H](N)CCCN=C(N)N)C(=O)NCC(=O)N[C@@H](CCCCN)C(=O)N[C@@H](CCCCN)C(=O)N[C@@H](CS)C(=O)N[C@@H](CCC(=O)O)C(=O)N[C@@H](CS)C(=O)N1CCC[C@H]1C(=O)O` [RKGSRMGKKCECP] here?
**A.** 13.5 µM (≈ 20 µg/mL)

**Q.** What about the MIC [18] of the same compound?
**A.** 8.3 µM (≈ 12.3 µg/mL)

**Q.** And the MIC [5]?
**A.** 2.1 µM (≈ 3.11 µg/mL)

**Q.** What about the MIC [19] of the same compound?
**A.** 2.1 µM (≈ 3.11 µg/mL)

**Q.** And the MIC [20]?
**A.** > 40 µM

**Q.** And the MIC [21]?
**A.** 8.3 µM (≈ 12.3 µg/mL)

**Q.** How did the MIC [22] turn out when `CSCC[C@H](NC(=O)[C@H](CCCCN)NC(=O)[C@@H](NC(=O)[C@H](CCCN=C(N)N)NC(=O)[C@H](CCCCN)NC(=O)[C@H](Cc1c[nH]c2ccccc12)NC(=O)[C@H](Cc1ccccc1)NC(=O)[C@H](CCCN=C(N)N)NC(=O)[C@H](CCCCN)NC(=O)[C@H](CC(C)C)NC(=O)[C@H](CCCCN)NC(=O)[C@@H](N)CCCN=C(N)N)C(C)C)C(=O)O` [RKLKRFWKRVKM] was run?
**A.** 14.9 µM (≈ 25 µg/mL)

**Q.** What about the MIC [23] of the same compound?
**A.** 29.8 µM (≈ 50 µg/mL)

**Q.** And the MIC [24]?
**A.** ≥ 239 µM

**Q.** What about the MIC [25] of the same compound?
**A.** 29.8 µM (≈ 50 µg/mL)

**Q.** And the MIC [26]?
**A.** 14.9 µM (≈ 25 µg/mL)

**Q.** Which results are given for `CSCC[C@H](NC(=O)[C@H](CCC(=O)O)NC(=O)[C@H](CCCCN)NC(=O)[C@H](CC(C)C)NC(=O)[C@H](CCCCN)NC(=O)CNC(=O)[C@H](Cc1c[nH]c2ccccc12)NC(=O)[C@H](CC(C)C)NC(=O)[C@@H](N)CO)C(=O)N[C@@H](C)C(=O)N[C@@H](C)C(=O)N[C@@H](C)C(=O)N[C@@H](C)C(=O)NCC(=O)N[C@@H](CCCCN)C(=O)N[C@@H](C)C(=O)N[C@@H](C)C(=O)N[C@@H](CC(C)C)C(=O)N[C@@H](CC(N)=O)C(=O)N[C@@H](C)C(=O)N[C@H](C(=O)N[C@@H](CC(N)=O)C(=O)NCC(=O)N[C@@H](CC(C)C)C(=O)N[C@H](C(=O)N[C@@H](CC(N)=O)C(=O)N[C@@H](CCC(N)=O)C(N)=O)C(C)C)C(C)C` [SLWGKLKEMAAAAGKAALNAVNGLVNQ]?
**A.** MIC [27]: ≥ 64 µM; MIC [28]: ≥ 32 µM; MIC [29]: 8 µM (≈ 21.8 µg/mL); MIC [30]: ≥ 32 µM; MIC [8]: 64 µM (≈ 174 µg/mL); MIC [31]: 8 µM (≈ 21.8 µg/mL); MIC [32]: ≥ 32 µM
